Like-named read-outs stand apart in the source and are kept apart here.
Test system: HBV rcDNA
Test: HepDE19 assay with bDNA quantitation of HBV rcDNA
Type: cell-based, hepatitis B virus (HBV)
Procedure, shortened: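 HepDE19 cells were switched to tetracycline-free medium and exposed to compound (0.5% DMSO final) for 7 days at 37° C. rcDNA was then quantified by bDNA with an HBV-specific probe set. In parallel, viability was read as ATP content (CellTiter-Glo) after 4 days on replicate plates.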

[1] = Hepatitis B virus, HepDE19, 168 h, read-out: DE-19bDNA EC50 (μM), HepDE19 cells, 7 day incubation, rcDNA measured by Quantigene 2.0 bDNA assay, top concentration 25 μM
[2] = HepDE19 cells, 7 day incubation, rcDNA measured by Quantigene 2.0 bDNA assay, top concentration 25 μM, read-out: DE-19bDNA EC50
[3] = Hepatitis B virus, HepDE19, 168 h, HepDE19 cells, 7 day incubation, rcDNA measured by Quantigene 2.0 bDNA assay, top concentration 25 μM, read-out: DE-19bDNA EC50

SMILES | EC50 [2] | other results
C[C@H](c1c[nH]c(=O)c2cc(F)c(F)cc12)N(C)C(=O)c1cc2sc(Cl)cc2[nH]1 [Compound 186, (R)-2-Chloro-N-(1-(6,7-difluoro-1-oxo-1,2-dihydroisoquinolin-4-yl)ethyl)-N-methyl-4H-thieno[3,2-b]pyrrole-5-carboxamide] |  | EC50 [1]: 0.03 µM
COc1ncc(C(C)N(C)C(=O)c2ccc(C(F)(F)F)c(F)c2)c2cc(F)c(F)cc12 (single isomer, unassigned) [Compound 176, N-(1-(6,7-Difluoro-1-methoxyisoquinolin-4-yl)ethyl)-3-fluoro-N-methyl-4-(trifluoromethyl)benzamide] | 0.56 µM | 
CC(c1c[nH]c(=O)c2c(F)c(F)ccc12)N(C)C(=O)C1Nc2ccccc2C1(C)C (stereo not shown) [Compound 107, N-(1-(7,8-Difluoro-1-oxo-1,2-dihydroisoquinolin-4-yl)ethyl)-N,3,3-trimethylindoline-2-carboxamide] | 16 µM | 
CC(c1c[nH]c(=O)c2cc(F)c(F)cc12)N(C)C(=O)c1n[nH]c2ccccc12 (single isomer, unassigned) [Compound 56, N-(1-(6,7-Difluoro-1-oxo-1,2-dihydroisoquinolin-4-yl)ethyl)-N-methyl-2H-indazole-3-carboxamide] | ≥ 25 µM | 
CC(c1c[nH]c(=O)c2cc(F)c(F)cc12)N(C)C(=O)c1ccc(F)c(F)c1 (single isomer, unassigned) [Compound 137, N-(1-(6,7-Difluoro-1-oxo-1,2-dihydroisoquinolin-4-yl)ethyl)-3,4-difluoro-N-methylbenzamide] | 22.4 µM | 
C[C@H](c1c[nH]c(=O)c2ccccc12)N(C)C(=O)c1cc2ccccc2[nH]1 [Compound 155, (R)-N-Methyl-N-(1-(1-oxo-1,2-dihydroisoquinolin-4-yl)ethyl)-1H-indole-2-carboxamide] |  | EC50 [3]: 0.17 µM
CC(c1c[nH]c(=O)c2c(F)c(F)ccc12)N(C)C(=O)C1Nc2ccccc2C1(C)C (stereo not shown) [Compound 104, N-(1-(7,8-Difluoro-1-oxo-1,2-dihydroisoquinolin-4-yl)ethyl)-N,3,3-trimethylindoline-2-carboxamide] |  | EC50 [3]: ≥ 25 µM
C[C@H](c1c[nH]c(=O)c2cc(F)c(F)cc12)N(C)C(=O)c1cc2c([nH]1)CCCC2 [Compound 34, (R)-N-(1-(6,7-Difluoro-1-oxo-1,2-dihydroisoquinolin-4-yl)ethyl)-N-methyl-4,5,6,7-tetrahydro-1H-indole-2-carboxamide] |  | EC50 [1]: 0.05 µM
CC(c1c[nH]c(=O)c2cc(F)c(F)cc12)N(C)C(=O)c1cc2ccccc2o1 (single isomer, unassigned) [Compound 25, N-(1-(6,7-Difluoro-1-oxo-1,2-dihydroisoquinolin-4-yl)ethyl)-N-methylbenzofuran-2-carboxamide] | 17 µM | 
CC(c1c[nH]c(=O)c2cc(F)c(F)cc12)N(C)C(=O)C1Cc2cc(F)ccc2N1 (stereo not shown) [Compound 63, N-(1-(6,7-Difluoro-1-oxo-1,2-dihydroisoquinolin-4-yl)ethyl)-5-fluoro-N-methylindoline-2-carboxamide] | 5.2 µM | 
C[C@H](c1c[nH]c(=O)c2ccccc12)N(C)C(=O)c1cc2cc(F)c(F)cc2[nH]1 [Compound 159, (R)-5,6-Difluoro-N-methyl-N-(1-(1-oxo-1,2-dihydroisoquinolin-4-yl)ethyl)-1H-indole-2-carboxamide] |  | EC50 [3]: 0.1 µM
CC(c1c[nH]c(=O)c2cc(F)c(F)cc12)N(C)C(=O)c1ccc(Cl)c(F)c1 (single isomer, unassigned) [Compound 121, 4-Chloro-N-(1-(6,7-difluoro-1-oxo-1,2-dihydroisoquinolin-4-yl)ethyl)-3-fluoro-N-methylbenzamide] | 5.68 µM | 
CC(c1c[nH]c(=O)c2cc(F)c(F)cc12)N(C)C(=O)c1cc2ccc(F)cn2c1 (single isomer, unassigned) [Compound 103, N-(1-(6,7-Difluoro-1-oxo-1,2-dihydroisoquinolin-4-yl)ethyl)-6-fluoro-N-methylindolizine-2-carboxamide] | 0.03 µM | 
CC(c1c[nH]c(=O)c2cc(F)c(F)cc12)N(C)C(=O)C(=O)NC1CC1 (racemic) [Compound 143, N1-Cyclopropyl-N2-(1-(6,7-difluoro-1-oxo-1,2-dihydroisoquinolin-4-yl)ethyl)-N2-methyloxalamide] |  | EC50 [3]: ≥ 25 µM
CC(c1c[nH]c(=O)c2cc(F)c(F)cc12)N(C)C(=O)c1cc2cc(F)ccn2c1 (single isomer, unassigned) [Compound 109, N-(1-(6,7-Difluoro-1-oxo-1,2-dihydroisoquinolin-4-yl)ethyl)-7-fluoro-N-methylindolizine-2-carboxamide] | 3.2 µM | 
CC(c1cn(C)c(=O)c2cc(F)c(F)cc12)N(C)C(=O)c1cc2cc(F)c(F)cc2[nH]1 (single isomer, unassigned) [Compound 174, N-(1-(6,7-difluoro-2-methyl-1-oxo-1,2-dihydroisoquinolin-4-yl)ethyl)-5,6-difluoro-N-methyl-1H-indole-2-carboxamide] | 0.05 µM | 

SMILES | EC50 [2] | other results
CC(c1c[nH]c(=O)c2cc(F)c(F)cc12)N(C)C(=O)c1cc2c([nH]1)CCC2 (single isomer, unassigned) [Compound 47, N-(1-(6,7-Difluoro-1-oxo-1,2-dihydroisoquinolin-4-yl)ethyl)-N-methyl-1,4,5,6-tetrahydro cyclopenta[b]pyrrole-2-carboxamide] | ≥ 25 µM | 
C[C@H](c1c[nH]c(=O)c2ccccc12)N(C)C(=O)c1cc2c(Cl)cccn2c1 [Compound 154, (R)-8-Chloro-N-methyl-N-(1-(1-oxo-1,2-dihydroisoquinolin-4-yl)ethyl)indolizine-2-carboxamide] |  | EC50 [3]: 0.14 µM
CC(c1c[nH]c(=O)c2cc(F)c(F)cc12)N(C)C(=O)c1ccc2c(ccn2C)c1 (single isomer, unassigned) [Compound 140, N-(1-(6,7-difluoro-1-oxo-1,2-dihydroisoquinolin-4-yl)ethyl)-N,1-dimethyl-1H-indole-5-carboxamide] | 0.12 µM | 
CC(c1c[nH]c(=O)c2c(F)c(F)ccc12)N(C)C(=O)c1cc2c([nH]1)CCC2 (single isomer, unassigned) [Compound 57, N-(1-(7,8-Difluoro-1-oxo-1,2-dihydroisoquinolin-4-yl)ethyl)-N-methyl-1,4,5,6-tetrahydrocyclopenta[b]pyrrole-2-carboxamide] | 12 µM | 
CC(c1c[nH]c(=O)c2cc(F)c(F)cc12)N(C)C(=O)C1Cc2c(F)cc(F)cc2N1 (stereo not shown) [Compound 101, N-(1-(6,7-Difluoro-1-oxo-1,2-dihydroisoquinolin-4-yl)ethyl)-4,6-difluoro-N-methylindoline-2-carboxamide] | 0.03 µM | 
CC(c1c[nH]c(=O)c2cc(F)c(F)cc12)N(C)C(=O)c1cc2cc(Cl)ccn2c1 (single isomer, unassigned) [Compound 97, 7-Chloro-N-(1-(6,7-difluoro-1-oxo-1,2-dihydroisoquinolin-4-yl)ethyl)-N-methylindolizine-2-carboxamide] | 0.09 µM | 
CC(c1c[nH]c(=O)c2cc(F)c(F)cc12)N(C)C(=O)c1ccc(F)c(Cl)c1 (single isomer, unassigned) [Compound 136, 3-Chloro-N-(1-(6,7-difluoro-1-oxo-1,2-dihydroisoquinolin-4-yl)ethyl)-4-fluoro-N-methylbenzamide] | 0.17 µM | 
C[C@H](c1c[nH]c(=O)c2c(F)c(F)ccc12)N(C)C(=O)c1cccc(=O)[nH]1 [Compound 87, (R)-N-(1-(7,8-Difluoro-1-oxo-1,2-dihydroisoquinolin-4-yl)ethyl)-N-methyl-6-oxo-1,6-dihydropyridine-2-carboxamide] |  | EC50 [1]: 18 µM
CCN(C(=O)c1cc2ccccc2[nH]1)C(C)c1c[nH]c(=O)c2cc(F)c(F)cc12 (single isomer, unassigned) [Compound 5, N-(1-(6,7-Difluoro-1-oxo-1,2-dihydroisoquinolin-4-yl)ethyl)-N-ethyl-1H-indole-2-carboxamide] | 1.7 µM | 
CC(c1c[nH]c(=O)c2cc(F)c(F)cc12)N(C)C(=O)C1Cc2cc(F)ccc2N1 (stereo not shown) [Compound 64, N-(1-(6,7-Difluoro-1-oxo-1,2-dihydroisoquinolin-4-yl)ethyl)-5-fluoro-N-methylindoline-2-carboxamide] | 0.02 µM | 
CC(c1c[nH]c(=O)c2cc(F)c(F)cc12)N(CCCO)C(=O)c1cc2ccccc2[nH]1 (single isomer, unassigned) [Compound 28, N-(1-(6,7-Difluoro-1-oxo-1,2-dihydroisoquinolin-4-yl)ethyl)-N-(3-hydroxypropyl)-1H-indole-2-carboxamide] | 0.04 µM | 
C[C@H](c1c[nH]c(=O)c2ccccc12)N(C)C(=O)Cc1ccc(Cl)cc1 [Compound 151, (R)-2-(4-Chlorophenyl)-N-methyl-N-(1-(1-oxo-1,2-dihydroisoquinolin-4-yl)ethyl)acetamide] |  | EC50 [3]: 3.54 µM
COc1ncc(C(C)N(C)C(=O)c2ccc(Br)cc2)c2cc(F)c(F)cc12 (single isomer, unassigned) [Compound 163, 4-Bromo-N-(1-(6,7-difluoro-1-methoxyisoquinolin-4-yl)ethyl)-N-methylbenzamide] |  | EC50 (read-out: DE-19bDNA EC50, HepDE19 cells, 7 day incubation, rcDNA measured by Quantigene 2.0 bDNA assay, top concentration 25 μM): 0.44 µM
CC(c1c[nH]c(=O)c2cc(F)c(F)cc12)N(C)C(=O)C1Cc2c(F)cc(F)cc2N1 (stereo not shown) [Compound 98, N-(1-(6,7-Difluoro-1-oxo-1,2-dihydroisoquinolin-4-yl)ethyl)-4,6-difluoro-N-methylindoline-2-carboxamide] | 5.9 µM | 
C[C@H](c1c[nH]c(=O)c2cc(F)c(F)cc12)N(C)C(=O)c1ccc2cccn2c1 [Compound 185, (R)-N-(1-(6,7-Difluoro-1-oxo-1,2-dihydroisoquinolin-4-yl)ethyl)-N-methylindolizine-6-carboxamide] |  | EC50 [1]: 0.04 µM
